Measured values from patent US20250145635A1, “COMPOUND CONTAINING BIS(AZANYLYLIDENE) SULFONYL STRUCTURE AND USE THEREOF IN MEDICINE” (SCINNOHUB PHARMACEUTICAL CO., LTD., priority 2021, published 2025).

Tests used:
[1] = molecular target: recombinant human PKR enzyme (Homo sapiens (Human), UniProt P30613); assay: Pyruvate kinase (PKR) activity experiment; type: biochemical; settings: activation of recombinant human PKR enzyme
Description: • 1). A recombinant human PKR enzyme solution was formulated at a concentration of 60 ng/well (a 20 μL reaction system), and 5 μL of the solution was added into each well of a black transparent bottom 384-well plate. • 2). Compound solutions were formulated at different concentrations, with the final concentrations of 1000/300/100 nM (containing 1% DMSO). Each 5 μL of the compound solution was added into the plate in item 3.1 and mixed well. The plate was incubated at room temperature for 10 min. • 3). A reaction system was formulated according to the instructions of a kit (as shown in the table below), and 10 μL of the reaction system was added into each well of the 384-well plate, and mixed uniformly with the solution in item 3.2.
• 4). The 384-well plate was placed on a microplate reader to detect the fluorescence value at 540/590 nm, where the value was read every 2 minutes and the detection was conducted continuously for 1 hour. • 5). The Slope value within the detection time was calculated, and the 0.1% DMSO well was used as a control well to calculate a compound activation rate.
[formula] • 6). Fitting dose-effect curve
(§1) With the log value of the compound concentration as the X axis and the percentage activation rate as the Y axis, a dose-effect curve was fitted with the log(agonist) vs. response-variable slope of the analysis software GraphPad Prism 5, and the AC50 value of the activity of each compound against PKR was obtained.

[2] = molecular target: USP9X (Homo sapiens (Human), UniProt Q93008); assay: USP9X enzyme activity experiment; type: biochemical; settings: inhibition of USP9X enzyme, Ub-Rho 110 substrate
Chain of USP9X (Q93008 whole entry): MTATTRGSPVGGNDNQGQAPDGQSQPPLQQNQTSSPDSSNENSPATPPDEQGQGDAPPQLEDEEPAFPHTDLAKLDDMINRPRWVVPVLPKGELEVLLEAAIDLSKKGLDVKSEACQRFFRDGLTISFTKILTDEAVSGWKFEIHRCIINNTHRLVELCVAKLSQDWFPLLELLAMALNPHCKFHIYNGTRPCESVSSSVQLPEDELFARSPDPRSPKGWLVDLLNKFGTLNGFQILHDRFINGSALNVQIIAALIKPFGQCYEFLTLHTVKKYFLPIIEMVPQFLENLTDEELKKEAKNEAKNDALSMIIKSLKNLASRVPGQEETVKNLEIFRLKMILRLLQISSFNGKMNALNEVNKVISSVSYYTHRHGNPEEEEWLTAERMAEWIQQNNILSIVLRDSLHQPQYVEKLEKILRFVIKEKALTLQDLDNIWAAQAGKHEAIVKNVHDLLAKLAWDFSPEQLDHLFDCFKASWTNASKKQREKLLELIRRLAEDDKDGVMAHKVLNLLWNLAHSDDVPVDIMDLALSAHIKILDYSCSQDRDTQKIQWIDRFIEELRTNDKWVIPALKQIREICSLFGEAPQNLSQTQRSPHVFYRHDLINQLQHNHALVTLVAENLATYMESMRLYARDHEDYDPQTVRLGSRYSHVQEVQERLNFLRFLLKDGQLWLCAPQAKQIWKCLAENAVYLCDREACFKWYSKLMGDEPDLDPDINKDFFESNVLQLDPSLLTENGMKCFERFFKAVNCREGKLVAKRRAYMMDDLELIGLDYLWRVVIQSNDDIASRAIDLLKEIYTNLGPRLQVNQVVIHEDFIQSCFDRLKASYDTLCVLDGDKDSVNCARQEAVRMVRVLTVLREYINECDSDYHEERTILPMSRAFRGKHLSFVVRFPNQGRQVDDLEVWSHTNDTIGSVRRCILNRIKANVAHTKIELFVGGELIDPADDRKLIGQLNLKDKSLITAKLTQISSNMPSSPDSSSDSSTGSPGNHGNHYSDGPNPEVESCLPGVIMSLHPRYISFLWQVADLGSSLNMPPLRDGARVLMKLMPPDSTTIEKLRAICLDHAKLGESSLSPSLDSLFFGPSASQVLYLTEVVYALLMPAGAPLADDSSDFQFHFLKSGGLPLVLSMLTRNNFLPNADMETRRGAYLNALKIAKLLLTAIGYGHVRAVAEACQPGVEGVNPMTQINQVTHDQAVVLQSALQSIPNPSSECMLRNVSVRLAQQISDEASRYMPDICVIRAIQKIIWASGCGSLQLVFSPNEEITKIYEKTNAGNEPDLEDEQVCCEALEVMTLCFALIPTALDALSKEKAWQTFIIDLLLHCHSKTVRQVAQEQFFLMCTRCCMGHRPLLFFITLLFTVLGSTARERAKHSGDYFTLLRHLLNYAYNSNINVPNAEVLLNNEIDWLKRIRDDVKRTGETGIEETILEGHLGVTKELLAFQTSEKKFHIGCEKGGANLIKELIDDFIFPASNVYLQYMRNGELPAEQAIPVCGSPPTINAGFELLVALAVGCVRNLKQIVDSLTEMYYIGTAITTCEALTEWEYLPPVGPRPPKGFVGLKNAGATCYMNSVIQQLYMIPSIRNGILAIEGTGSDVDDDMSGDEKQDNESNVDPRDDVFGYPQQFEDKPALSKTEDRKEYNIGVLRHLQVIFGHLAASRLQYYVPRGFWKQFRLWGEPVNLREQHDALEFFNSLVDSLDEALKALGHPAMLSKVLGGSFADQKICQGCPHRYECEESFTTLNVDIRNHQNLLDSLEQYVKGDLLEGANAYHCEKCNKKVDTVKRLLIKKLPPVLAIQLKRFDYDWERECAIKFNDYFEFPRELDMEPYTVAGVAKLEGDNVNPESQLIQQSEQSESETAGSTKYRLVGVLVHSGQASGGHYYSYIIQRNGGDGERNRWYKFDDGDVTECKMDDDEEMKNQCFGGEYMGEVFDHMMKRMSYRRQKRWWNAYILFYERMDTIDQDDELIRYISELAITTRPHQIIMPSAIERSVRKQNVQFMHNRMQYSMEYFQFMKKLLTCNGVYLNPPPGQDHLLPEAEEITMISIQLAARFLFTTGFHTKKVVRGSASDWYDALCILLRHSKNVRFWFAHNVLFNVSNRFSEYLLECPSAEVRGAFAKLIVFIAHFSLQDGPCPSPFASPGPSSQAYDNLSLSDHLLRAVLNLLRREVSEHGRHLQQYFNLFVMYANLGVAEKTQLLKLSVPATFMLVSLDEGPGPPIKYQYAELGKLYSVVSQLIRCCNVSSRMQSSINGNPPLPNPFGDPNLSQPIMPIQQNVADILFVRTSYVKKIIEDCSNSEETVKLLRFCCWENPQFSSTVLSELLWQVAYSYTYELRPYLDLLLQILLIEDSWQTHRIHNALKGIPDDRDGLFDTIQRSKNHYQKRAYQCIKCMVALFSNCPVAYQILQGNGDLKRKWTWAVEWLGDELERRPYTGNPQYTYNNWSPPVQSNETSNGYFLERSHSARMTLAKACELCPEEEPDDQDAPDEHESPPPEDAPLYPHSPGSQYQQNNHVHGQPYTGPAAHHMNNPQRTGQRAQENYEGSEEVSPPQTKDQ
Description: • 1). A 1× analysis buffer was formulated, consisting of a modified Tris buffer (pH 7.5). • 2). Compound solutions of different concentrations were formulated with final concentrations of 3,000/1,000/300/100/30/10/3/1 nM (containing 1% DMSO), and added into a 384-well plate. • 3). A USP9X enzyme solution was formulated with the 1× analysis buffer. • 4). 10 μL of the USP9X enzyme solution was added into the 384-well plate, and incubated with the compounds at room temperature for 1 h. • 5). Rhodamine 110 Protein was added into the 1× analysis buffer to formulate a substrate working solution. • 6). 10 μL of the substrate solution was added into each reaction well, centrifuged for 30 s, and mixed uniformly for 30 s. • 7). The 384-well plate was placed on a microplate reader for detection, with an excitation wavelength of 480 nm and an emission wavelength of 540 nm. Test was conducted for 30 minutes and the data was collected. • 8. Fitting the dose-effect curve.
as §1, with “inhibition” for “activation”, “log(inhibitor)” for “log(agonist)”, “IC50” for “AC50”, “USP9X” for “PKR”

Chain of recombinant human PKR enzyme (P30613 whole entry): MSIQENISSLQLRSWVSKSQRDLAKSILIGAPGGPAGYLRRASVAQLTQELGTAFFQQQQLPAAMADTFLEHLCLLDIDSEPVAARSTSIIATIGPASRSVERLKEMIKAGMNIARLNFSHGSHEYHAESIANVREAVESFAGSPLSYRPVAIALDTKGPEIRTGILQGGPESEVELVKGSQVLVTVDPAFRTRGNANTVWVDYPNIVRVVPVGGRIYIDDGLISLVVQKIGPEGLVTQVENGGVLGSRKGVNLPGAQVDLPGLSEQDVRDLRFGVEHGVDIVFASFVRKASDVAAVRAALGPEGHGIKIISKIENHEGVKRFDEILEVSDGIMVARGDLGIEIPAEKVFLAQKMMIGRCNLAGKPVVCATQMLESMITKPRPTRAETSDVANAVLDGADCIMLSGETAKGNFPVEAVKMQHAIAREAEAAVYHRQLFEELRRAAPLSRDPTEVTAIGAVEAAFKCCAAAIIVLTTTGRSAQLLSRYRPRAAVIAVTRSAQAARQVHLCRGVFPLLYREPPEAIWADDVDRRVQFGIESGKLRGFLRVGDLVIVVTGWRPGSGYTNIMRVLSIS

| SMILES | AC50 [1] [nM] | IC50 [2] [nM] |
| --- | --- | --- |
| COc1ccc(S(=O)(=O)N2CC(=C3CN(C(=O)[C@H](CO)c4ccccc4)C3)C2)cc1 [Compound 5, (S)-3-hydroxy-1-(1′-((4-methoxyphenyl)sulfonyl)-1′,4′-dihydro-2H,2′H-[3,3′-diazetidinylidene]-1(4H)-yl)-2-phenylpropan-1-one] | < 100 | < 100 |
| O=C([C@H](CO)c1ccccc1)N1CC(=C2CN(S(=O)(=O)c3cnc4c(c3)OCCO4)C2)C1 [Compound 1, (S)-1-(1′-((2,3-dihydro-[1,4]dioxino[2,3-b]pyridin-7-yl)sulfonyl)-1′,4′-dihydro-2H,2′H-[3,3′-diazetidinylidene]-1(4H)-yl)-3-hydroxy-2-phenylpropan-1-one] | 300 to 1000 | < 100 |
| O=C([C@H](CO)c1ccccc1)N1CC(=C2CN(S(=O)(=O)c3ccc4ncsc4c3)C2)C1 [Compound 3, (S)-1-(1′-(benzo[d]thiazol-6-ylsulfonyl)-1′,4′-dihydro-2H,2′H-[3,3′-diazetidinylidene]-1(4H)-yl)-3-hydroxy-2-phenylpropan-1-one] | < 100 | 300 to 1000 |
| O=C([C@H](CO)c1ccc(F)cc1F)N1CC(=C2CN(S(=O)(=O)c3ccccn3)C2)C1 [Compound 83, (S)-2-(2,4-difluorophenyl)-3-hydroxy-1-(1′-(pyridin-2-ylsulfonyl)-1′,4′-dihydro-2H,2′H-[3,3′-diazetidinylidene]-1(4H)-yl)propan-1-one] | < 100 | – |
| O=C([C@H](CO)c1ccccc1)N1CC(=C2CN(S(=O)(=O)c3ccc(OC(F)(F)F)cc3)C2)C1 [Compound 9, (S)-3-hydroxy-2-phenyl-1-(1′-((4-(trifluoromethoxy)phenyl)sulfonyl)-1′,4′-dihydro-2H,2′H-[3,3′-diazetidinylidene]-1(4H)-yl)propan-1-one] | 101 to 300 | – |
| Cc1nc2ccc(S(=O)(=O)N3CC(=C4CN(C(=O)[C@H](CO)c5ccccc5)C4)C3)cc2s1 [Compound 35, (S)-3-hydroxy-1-(1′-((2-methylbenzo[d]thiazol-6-yl)sulfonyl)-1′,4′-dihydro-2H,2′H-[3,3′-diazetidinylidene]-1(4H)-yl)-2-phenylpropan-1-one] | < 100 | – |
| N#Cc1ccc(S(=O)(=O)N2CC(=C3CN(C(=O)[C@H](CO)c4ccccc4)C3)C2)nc1 [Compound 70, (S)-6-((1′-(3-hydroxy-2-phenylpropionyl)-1′,4′-dihydro-2H,2′H-[3,3′-diazetidinylidene]-1(4H)-yl)sulfonyl)nicotinonitrile] | 300 to 1000 | – |

Second part, the compound after the results:

| AC50 [1] [nM] | IC50 [2] [nM] | SMILES |
| --- | --- | --- |
| < 100 | < 100 | O=C([C@H](CO)c1ccccc1)N1CC(=C2CN(S(=O)(=O)c3ccc4c(c3)OCCO4)C2)C1 [Compound 2, (S)-1-(1′-((2,3-dihydrobenzo[b][1,4]dioxin-6-yl)sulfonyl)-1′,4′-dihydro-2H,2′H-[3,3′-diazetidinylidene]-1(4H)-yl)-3-hydroxy-2-phenylpropan-1-one] |
| – | 101 to 300 | O=C(C(CO)c1ccccc1)N1CC(=C2CN(S(=O)(=O)c3ccc(OC(F)F)cc3)C2)C1 (stereo not shown) [Compound 6, 1-(1′-((4-(difluoromethoxy)phenyl)sulfonyl)-1′,4′-dihydro-2H,2′H-[3,3′-diazetidinylidene]-1(4H)-yl)-3-hydroxy-2-phenylpropan-1-one] |
| 101 to 300 | 101 to 300 | O=C([C@H](CO)c1ccccc1)N1CC(=C2CN(S(=O)(=O)c3ccccn3)C2)C1 [Compound 4, (S)-3-hydroxy-2-phenyl-1-(1′-(pyridin-2-ylsulfonyl)-1′,4′-dihydro-2H,2′H-[3.3′-diazetidinylidene]-1(4H)-yl)propan-1-one] |
| 300 to 1000 | – | Cc1nc2c(C(O)C(=O)N3CC(=C4CN(S(=O)(=O)c5ccc(OC(F)F)cc5)C4)C3)cccc2s1 (stereo not shown) [Compound 24, 1-(1′-((4-(difluoromethoxy)phenyl)sulfonyl)-1′,4′-dihydro-2H,2′H-[3,3′-diazetidinylidene]-1(4H)-yl)-2-hydroxy-2-(2-methylbenzo[d]thiazol-4-yl)ethan-1-one] |
| < 100 | – | CCOc1ccc(S(=O)(=O)N2CC(=C3CN(C(=O)[C@H](CO)c4ccccc4)C3)C2)nc1 [Compound 72, (S)-1-(1′-((5-ethoxypyridin-2-yl)sulfonyl)-1′,4′-dihydro-2H,2′H-[3,3′-diazetidinylidene]-1(4H)-yl)-3-hydroxy-2-phenylpropan-1-one] |
| 300 to 1000 | – | NC(C(=O)N1CC(=C2CN(S(=O)(=O)c3ccc(OC(F)F)cc3)C2)C1)c1ccc(F)cc1 (stereo not shown) [Compound 22, 2-amino-1-(1′-((4-(difluoromethoxy)phenyl)sulfonyl)-1′,4′-dihydro-2H,2′H-[3,3′-diazetidinylidene]-1(4H)-yl)-2-(4-fluorophenyl)ethan-1-one] |
| < 100 | – | COc1ccc(S(=O)(=O)N2CC(=C3CN(C(=O)[C@H](CO)c4ccc(F)cc4F)C3)C2)nc1 [Compound 87, (S)-2-(2,4-difluorophenyl)-3-hydroxy-1-(1′-((5-methoxypyridin-2-yl)sulfonyl)-1′,4′-dihydro-2H,2′H-[3,3′-diazetidinylidene]-1(4H)-yl)propan-1-one] |
